# Measured values taken from ChEMBL document CHEMBL4613240, “Pagoamide A, a Cyclic Depsipeptide Isolated from a Cultured Marine Chlorophyte, Derbesia sp., Using MS/MS-Based Molecular Networking” (J Nat Prod, 2020).
# Calls of active or inactive are those of the source. No cut-off for these calls is given here.
# How the values were obtained:
# NCI-H460 = assay: Cytotoxicity against human NCI-H460 cells at 30 uM incubated for 48 hrs by MTT assay; format: functional, cell-based
# Cerebral cortex neuron = assay: Modulation of calcium oscillation in Swiss-Webster gravid dams mouse cerebrocortical neurons measured for 2 mins on day 12 by fluo-3 AM dye based fluorescence assay; format: functional, cell-based
structure (smiles),measurement,setting,value
CC(C)[C@@H]1NC(=O)[C@@H](Cc2ccccc2)NC(=O)[C@@H](C)NC(=O)[C@H](CO)NC(=O)[C@@H](NC(=O)[C@@H](CO)NC(=O)c2csc(CNC(=O)c3csc([C@H](C(C)C)N(C)C)n3)n2)[C@@H](C)OC(=O)[C@H](Cc2ccccc2)NC1=O,Activity,NCI-H460,inactive
same,Activity,Cerebral cortex neuron,inactive
